Where two headings read alike, the source gives them in different places.
What was measured:
[1] = tested on: MES SA, MES SA DX and HEK 293T cells; test: In vitro cytotoxicity assay, structure-activity discussion over the cell lines tested; conditions: refers to Tables 2 and 3
[2] = tested on: MES SA (uterine sarcoma cell line); test: In vitro cytotoxicity assay (CellTiter-Glo, 72 hours), MES SA; assay type: cell-based; conditions: Homo sapiens, MES-SA
[3] = tested on: MES SA DX (MES SA cell line with marked multi-drug resistance); test: In vitro cytotoxicity assay (CellTiter-Glo, 72 hours), MES SA DX; conditions: for IC50: Homo sapiens, MES-SA, 72 h
[4] = tested on: HEK 293T (human embryonic kidney cancer cell line); test: In vitro cytotoxicity assay (CellTiter-Glo, 72 hours), HEK 293T; assay type: cell-based; conditions: Homo sapiens, HEK-293T
[5] = 72 h, read-out: MES SA, IC50 Value in nM
[6] = read-out: MES SA DX, IC50 Value in nM
[7] = 72 h, read-out: HEK 293T, IC50 Value in nM

In the case of `CCOC(=O)[C@@H](C)C[C@H](Cc1ccccc1)NC(=O)c1csc([C@@H](C[C@H](C(C)C)N(C)C(=O)CNC(=O)[C@H]2CCCCN2C)OC(C)=O)n1` [Tb88, Ethyl (2S,4R)-4-[({2-[(1R,3R)-1-acetoxy-4-methyl-3-{methyl[({[(2R)-1-methylpiperidin-2-yl]carbonyl}amino)acetyl]amino}pentyl]-1,3-thiazol-4-yl}carbonyl)amino]-2-methyl-5-phenylpentanoate], the “cytotoxicity potency (in words, structure-activity discussion)” value (“cytotoxicity potency” for short) [1] is reported as “no significant activity”, the IC50 [2, 5] is reported as 458 nM and the IC50 [3, 6] is reported as greater than 2500 nM. For the same molecule, the IC50 [4, 7] was 494 nM.

In the case of `COC(=O)[C@@H](C)C[C@H](Cc1ccccc1)NC(=O)c1csc(C(=O)C[C@H](C(C)C)N(C)C(=O)[C@@H](NC(=O)[C@H]2CCCCN2C)C(C)C)n1` [Tb63, Methyl (2S,4R)-2-methyl-4-[({2-[(3R)-4-methyl-3-{methyl[(2S)-3-methyl-2-({[(2R)-1-methylpiperidin-2-yl]carbonyl}amino)butanoyl]amino}pentanoyl]-1,3-thiazol-4-yl}carbonyl)amino]-5-phenylpentanoate], the “cytotoxicity potency” value [1] is reported as “significant reduction in potency”, the IC50 [2, 5] is reported as greater than 1000 nM and the IC50 [3, 6] is reported as greater than 1000 nM. The IC50 [4, 7] was greater than 1000 nM.

In the case of `CCC(C)(C)[C@H](NC(=O)[C@H]1CCCCN1C)C(=O)N(C)[C@H](C[C@@H](OC(C)=O)c1nc(C(=O)N[C@@H](Cc2ccccc2)C[C@H](C)C(=O)O)cs1)C(C)C` [Tb109, (2S,4R)-4-[({2-[(1R,3R)-1-Acetoxy-3-{[(2S)-3,3-dimethyl-2-({[(2R)-1-methylpiperidin-2-yl]car-bonyl}amino)pentanoyl](methyl)amino}-4-methylpentyl]-1,3-thiazol-4-yl}carbonyl)amino]-2-methyl-5-phenylpentanoic acid], the “cytotoxicity potency” value [1] is reported as “exceptional potencies”, the IC50 ([2]; 72 h, read-out: MES SA, IC50) is reported as 0.36 nM and the IC50 [2, 5] is reported as 0.36 nM. For the same molecule, the “cytotoxicities against the marked drug resistant cancer cell line MES SA DX (in words)” value [3] was “relatively potent (low nanomolar)”, the IC50 ([3]; read-out: MES SA DX, IC50) was 1.39 nM and the IC50 [3, 6] was 1.39 nM. For the same molecule, the IC50 ([4]; 72 h, read-out: HEK 293T, IC50) was 0.01 nM and the IC50 [4, 7] was 0.01 nM.

In the case of `CC(=O)O[C@H](C[C@H](C(C)C)N(C)C(=O)[C@@H](NC(=O)[C@H]1CCCCN1C)C(C)(C)C)c1nc(C(=O)N[C@@H](Cc2ccccc2)C[C@H](C)C(=O)O)cs1` [Tb107, (2S,4R)-4-[({2-[(1R,3R)-1-Acetoxy-3-{[(2S)-3,3-dimethyl-2-({[(2R)-1-methylpiperidin-2-yl]carbonyl}amino)butanoyl](methyl)amino}-4-methylpentyl]-1,3-thiazol-4-yl}carbonyl)amino]-2-methyl-5-phenylpentanoic acid], the “cytotoxicity potency” value [1] is reported as “exceptional potencies”, the IC50 ([2]; 72 h, read-out: MES SA, IC50) is reported as 0.01 nM and the IC50 [2, 5] is reported as 0.01 nM. For the same molecule, the “cytotoxicities against the marked drug resistant cancer cell line MES SA DX (in words)” value [3] was “relatively potent (low nanomolar)”, the IC50 ([3]; read-out: MES SA DX, IC50) was 4.05 nM and the IC50 [3, 6] was 4.05 nM. The IC50 ([4]; 72 h, read-out: HEK 293T, IC50) was 0.02 nM and the IC50 [4, 7] was 0.02 nM.

With `CCCCN1CCCC[C@@H]1C(=O)N[C@H](C(=O)N(C)[C@H](CCc1nc(C(=O)N[C@@H](Cc2ccccc2)C[C@H](C)C(=O)OC)cs1)C(C)C)[C@@H](C)CC` [PTb-D47] the “cytotoxicity potency” value [1] was “insignificant or low biological activity”, the IC50 [2, 5] was greater than 1000 nM and the IC50 [3, 6] was greater than 1000 nM. For the same molecule, the IC50 [4, 7] was greater than 1000 nM.

`COC(=O)C12CC(NC(=O)c3csc([C@@H](C[C@H](C(C)C)N(C)C(=O)[C@@H](NC(=O)[C@H]4CCCCN4C)C(C)C)OC(C)=O)n3)(C1)C2` [Tb102, Methyl 3-{[(2-{1-acetoxy-4-methyl-3-[methyl(3-methyl-2-{[(1-methylpiperidin-2-yl)carbonyl]amino}-butanoyl)amino]pentyl}-1,3-thiazol-4-yl)carbonyl]amino}bicyclo[1.1.1]pentane-1-carboxylate] was tested, and the “cytotoxicity potency” value [1] was “subnanomolar potencies against two of the cell lines tested”, the IC50 ([2]; 72 h, read-out: MES SA, IC50) was 0.926 nM and the IC50 [2, 5] was 0.926 nM. It also gave an IC50 ([3]; read-out: MES SA DX, IC50) of 54.1 nM, an IC50 [3, 6] of 54.1 nM and an IC50 ([4]; 72 h, read-out: HEK 293T, IC50) of 0.355 nM. For the same molecule, the IC50 [4, 7] was 0.355 nM.

With `COC(=O)[C@@H](C)C[C@H](Cc1ccccc1)NC(=O)c1nc([C@@H](C[C@H](C(C)C)N(C)C(=O)[C@@H](NC(=O)[C@H]2CCCCN2C)C(C)C)OC(C)=O)sc1C(C)C` [Tb72, Methyl (2S,4R)-4-[({2-[(1R,3R)-1-acetoxy-4-methyl-3-{methyl[(2S)-3-methyl-2-({[(2R)-1-methyl-piperidin-2-yl]carbonyl}amino)butanoyl]amino}pentyl]-5-isopropyl-1,3-thiazol-4-yl}carbonyl)-amino]-2-methyl-5-phenylpentanoate] the “cytotoxicity potency” value [1] was “significant loss of potency”, the IC50 [2, 5] was 11.7 nM and the IC50 [3, 6] was greater than 70 nM. The IC50 [4, 7] was 4.02 nM.

`COC(=O)[C@@H](C)C[C@H](Cc1ccc(F)cc1)NC(=O)c1csc([C@@H](C[C@H](C(C)C)N(C)C(=O)[C@@H](NC(=O)[C@H]2CCCCN2C)C2CC2)OC(C)=O)n1` [Tb101, Methyl (2S,4R)-4-[({2-[(1R,3R)-1-acetoxy-3-{[(2S)-2-cyclopropyl-2-({[(2R)-1-methylpiperidin-2-yl]-carbonyl}amino)acetyl](methyl)amino}-4-methylpentyl]-1,3-thiazol-4-yl}carbonyl)amino]-5-(4-fluorophenyl)-2-methylpentanoate] was tested, and the “cytotoxicity potency” value [1] was “loss of activity”, the IC50 [2, 5] was greater than 1000 nM and the IC50 [3, 6] was greater than 1000 nM. The IC50 [4, 7] was greater than 1000 nM.

With `CCCCN1CCCC[C@@H]1C(=O)N[C@H](C(=O)N(C)[C@H](CCc1nc(C(=O)N[C@@H](Cc2ccccc2)C[C@H](C)C(=O)OC)cs1)C(C)C)C(C)C` [PTb-D49] the “cytotoxicity potency” value [1] was “insignificant or low biological activity”, the IC50 ([2]; Table 2, 72 hours, CellTiter-Glo, read-out: MES SA, IC50 Value in nM) was greater than 1000 nM and the IC50 [3, 6] was greater than 1000 nM. The IC50 ([4]; Table 2, 72 hours, CellTiter-Glo, read-out: HEK 293T, IC50 Value in nM) was greater than 1000 nM.

For `CC[C@H](C)[C@H](NC(=O)[C@H]1CCCCN1C)C(=O)N(C)[C@H](C[C@@H](O)c1nc(C(=O)N[C@@H](Cc2ccccc2)C[C@H](C)C(=O)O)cs1)C(C)C` [Tb58, (2S,4R)-4-[({2-[(1R,3R)-1-Hydroxy-4-methyl-3-{methyl[(2S,3S)-3-methyl-2-({[(2R)-1-methylpiperidin-2-yl]carbonyl}amino)pentanoyl]amino}pentyl]-1,3-thiazol-4-yl}carbonyl)amino]-2-methyl-5-phenylpentanoic acid], the “cytotoxicity potency” value [1] was “significant reduction in potency”, the IC50 [2, 5] was greater than 1000 nM and the IC50 [3, 6] was greater than 1000 nM. It also gave an IC50 [4, 7] greater than 1000 nM.

For `Cc1sc(C(=O)C[C@H](C(C)C)N(C)C(=O)[C@@H](NC(=O)[C@H]2CCCCN2C)C(C)C)nc1C(=O)N[C@@H](Cc1ccccc1)C[C@H](C)C(=O)O` [Tb68, (2S,4R)-2-Methyl-4-[({5-methyl-2-[(3R)-4-methyl-3-{methyl[(2S)-3-methyl-2-({[(2R)-1-methyl-piperidin-2-yl]carbonyl}amino)butanoyl]amino}pentanoyl]-1,3-thiazol-4-yl}carbonyl)amino]-5-phenylpentanoic acid], the “cytotoxicity potency” value [1] was “significant reduction in potency”, the IC50 [2, 5] was greater than 1000 nM and the IC50 [3, 6] was greater than 1000 nM. The IC50 [4, 7] was greater than 1000 nM.

With `COC(=O)[C@@H](C)C[C@H](Cc1ccccc1)NC(=O)c1nc([C@@H](C[C@H](C(C)C)N(C)C(=O)[C@@H](NC(=O)[C@H]2CCCCN2C)C(C)C)OC(C)=O)sc1C` [Tb66, Methyl (2S,4R)-4-[({2-[(1R,3R)-1-acetoxy-4-methyl-3-{methyl[(2S)-3-methyl-2-({[(2R)-1-methyl-piperidin-2-yl]carbonyl}amino)butanoyl]amino}pentyl]-5-methyl-1,3-thiazol-4-yl}carbonyl)amino]-2-methyl-5-phenylpentanoate] the “cytotoxicity potency” value [1] was “some loss of potency”, the IC50 [2, 5] was 1.03 nM and the IC50 [3, 6] was greater than 1000 nM. For the same molecule, the IC50 [4, 7] was 0.773 nM.

In the case of `COC(=O)CC[C@H](Cc1ccccc1)NC(=O)c1csc([C@@H](C[C@H](C(C)C)N(C)C(=O)[C@@H](NC(=O)[C@H]2CCCCN2C)C(C)C)OC(C)=O)n1` [Tb105, Methyl 4-{[(2-{1-acetoxy-4-methyl-3-[methyl(3-methyl-2-{[(1-methylpiperidin-2-yl)carbonyl]-amino}butanoyl)amino]pentyl}-1,3-thiazol-4-yl)carbonyl]amino}-5-phenylpentanoate], the “cytotoxicity potency” value [1] is reported as “considerable loss of activity”, the IC50 [2, 5] is reported as 2.94 nM and the IC50 [3, 6] is reported as greater than 1000 nM. It also gave an IC50 [4, 7] of 1.53 nM.

For `CCOC(=O)[C@@H](C)C[C@H](Cc1ccccc1)NC(=O)c1csc([C@@H](C[C@H](C(C)C)N(C)C(=O)[C@@H](NC(=O)[C@H]2CCCCN2C)C(C)(C)C)OC(C)=O)n1` [Tb106, Ethyl (2S,4R)-4-[({2-[(1R,3R)-1-acetoxy-3-{[(2S)-3,3-dimethyl-2-({[(2R)-1-methylpiperidin-2-yl]car-bonyl}amino)butanoyl](methyl)amino}-4-methylpentyl]-1,3-thiazol-4-yl}carbonyl)amino]-2-methyl-5-phenylpentanoate], the “cytotoxicity potency” value [1] was “exceptional potencies”, the IC50 ([2]; 72 h, read-out: MES SA, IC50) was 0.12 nM and the IC50 [2, 5] was 0.12 nM. For the same molecule, the IC50 ([3]; read-out: MES SA DX, IC50) was 2.73 nM, the IC50 [3, 6] was 2.73 nM and the IC50 ([4]; 72 h, read-out: HEK 293T, IC50) was 0.13 nM. The IC50 [4, 7] was 0.13 nM.

Source: patent publication US11274124B2, “Tubulysin analogues as anticancer agents and payloads for antibody-drug conjugates and methods of treatment therewith” (William Marsh Rice University, priority 2017, dated 2022)
